Results: patent publication US20240398919A1, “EPITOPE PEPTIDE FOR TUMOR-ASSOCIATED ANTIGEN AND USE THEREOF” (SHENZHEN INSTITUTES OF ADVANCEDTECHNOLOGY CHINESE ACADEMY …, priority 2023, published 2024)
“Also recorded” adds a separate entry of the source.

Columns and labels:
[1] = test system: splenocytes (IFN-γ secreting T cells); assay: IFN-γ ELISPOT of splenocytes co-cultured with peptides; type: cell-based; conditions: splenocytes of immunized mice, 5×10^5/well, co-cultured with peptide (10 μg) for 20 h; vs DPBS and CpG groups
Method: Isolate splenocytes: Spleens were gently mashed and filtered through a 70-μm strainer (Falcon, Corning, Germany), and then collected into a 15 mL centrifuge tube. After adding 1 mL erythrocyte lysis buffer and washing in PBS, cells were collected for ELISPOT assay.
Enzyme-linked immunospot assay (ELISPOT): splenocytes were isolated according to the above method and were co-cultured with different polypeptides (10 μg) at 5×10^5/well for 20 h. The size and number of IFN-γ positive spots were calculated by using Adobe Photoshop CS6 software.
FIGS. 5A and 5B is a graph showing the detection results of the ability of specific T cells to secrete IFN-γ induced by tumor antigen epitope peptides. In FIGS. 5A and 5B, the experimental mice were euthanized, the monocytes derived from spleens were co-cultured with different peptides for 20 h to detect the secretion of IFN-γ by ELISPOT assay according to the manufacturer's instructions. Spleens were gently mashed and monocytes were isolated using a lymphocyte separation medium. The monocytes were incubated into wells of an ELISPOT plate and stimulated synchronously. The cells were incubated in an incubator at 37° C. and cytokines were captured. The number of T cells specifically secreting IFN-γ in splenocytes of the immunized mice can be detected by detecting the formation of spots.

[2] = test system: MB49 bladder cancer cells; assay: Tumor growth inhibition by peptide vaccines in the mouse bladder cancer treatment model; type: in vivo, C57BL/6 mice; conditions: 3×10^5 MB49 cells s.c. on Day 0; peptide 100 μg/100 μL + CpG ODN 1826 10 μM s.c. on day 3, 6, 9, 12, 15, 18, 21; tumor size every 3 days; vs DPBS and CpG groups
Method: Cancer cells and animal model: MB49 bladder cancer cells were grown in DMEM containing 10% FBS (Fetal Bovine Serum, Gibco, 10099141C) and 1% PS (Penicillin-Streptomycin-Glutamine, Gibco, 10378016). 3×10^5 MB49 cancer cells were resuspended in 100 μL of DPBS and injected subcutaneously into a lower back of male C57BL/6 mice (6-8 weeks old), respectively to construct a mouse bladder cancer treatment model. After the initial implantation of tumors, the mice developed tumors around 5 days, and after tumor formation, the tumor growth was monitored every other 3 days, and a long diameter (a) and a short diameter (b) of the tumor were measured with a vernier caliper, and the size of each solid tumor was calculated according to the solid tumor size V=axbxb/2, and a tumor growth curve was plotted. […]
FIG. 2 is a graph showing the detection results of a tumor growth inhibition assay of antigenic epitope peptides derived from various genes tested. […] The tumor size in the mice was detected every 3 days.
FIG. 3 is a graph showing the detection results of testing the inhibitory effect of mixed peptide vaccines on tumor growth after vaccines are prepared by mixing the effective antigenic epitope peptides. […] The tumor size in the mice was detected every 3 days. […]

Sequence | Specific T-cell response (IFN-γ secretion, ELISPOT) [1] | Inhibition of tumor growth (tumor size) [2]
FYMMPVNSEVM [NUF-2] | can strongly stimulate the immune response of specific T cells; also recorded: significant T-cell responses; also recorded: strongest T-cell response | can effectively inhibit the growth of bladder cancer; also recorded: significantly inhibited the growth of bladder cancer; also recorded: most significant tumor-inhibiting effects
VHLAKSLPL [CENPM] | can strongly stimulate the immune response of specific T cells; also recorded: significant T-cell responses; also recorded: can induce T-cell responses | partial tumor growth inhibitory effect; also recorded: did not show significant tumor inhibition; also recorded: does not show strong anti-tumor effects
